pIC50: −log10 of the molar value.
What follows are compounds tested against T1, human Npt2a (Homo sapiens, UniProt Q06495) (assay: Npt2a activity cell based assay, membrane potential dye, CHO T-REx hNpt2a cells). Conditions: doxycycline-induced, depolarization by sodium phosphate influx, average or median values if tested more than once.
T1 construct: expressed in transfected cells
T1 sequence (Q06495 1-639): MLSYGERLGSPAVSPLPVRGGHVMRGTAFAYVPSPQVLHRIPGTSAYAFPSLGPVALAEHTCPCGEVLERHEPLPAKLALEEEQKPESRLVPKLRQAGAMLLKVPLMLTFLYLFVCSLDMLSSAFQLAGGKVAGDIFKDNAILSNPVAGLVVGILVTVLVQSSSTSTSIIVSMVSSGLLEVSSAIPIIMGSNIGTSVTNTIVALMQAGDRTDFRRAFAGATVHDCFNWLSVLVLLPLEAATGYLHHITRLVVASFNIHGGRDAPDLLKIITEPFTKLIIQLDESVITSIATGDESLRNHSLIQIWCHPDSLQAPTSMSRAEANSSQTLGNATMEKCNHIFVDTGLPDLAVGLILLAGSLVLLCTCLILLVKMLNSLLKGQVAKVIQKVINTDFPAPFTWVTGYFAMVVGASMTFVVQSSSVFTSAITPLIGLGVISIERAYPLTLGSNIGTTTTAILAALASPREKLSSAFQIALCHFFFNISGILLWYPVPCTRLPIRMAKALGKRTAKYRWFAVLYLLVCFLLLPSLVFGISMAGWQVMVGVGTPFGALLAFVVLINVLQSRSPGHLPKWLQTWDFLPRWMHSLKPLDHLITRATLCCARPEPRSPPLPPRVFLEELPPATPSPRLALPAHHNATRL
Summary of the method: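 Doxycycline-induced (0.5 μg/mL, 24 h) CHO T-REx cells were loaded with membrane potential dye in sodium-free NHE buffer (pH 7.4) and exposed to compound (50 μM–1 nM, 5 min, room temperature).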

How did the pIC50 turn out when `CCc1c(Nc2cc(-n3nc(C)cc3C)ncn2)nn(CCOCc2ccccc2)c1-c1ccc(F)cc1` [Example 31, N-{1-[2-(benzyloxy)ethyl]-4-ethyl-5-(4-fluorophenyl)-1H-pyrazol-3-yl}-6-(3,5-dimethyl-1H-pyrazol-1-yl)pyrimidin-4-amine] was run?
Its pIC50 is 6.17.

With `CCc1c(-c2ccc(F)cc2)nn(CCOCc2ccccc2)c1Nc1cc(-n2nc(C)cc2C)ncn1` [Example 32, N-{1-[2-(benzyloxy)ethyl]-4-ethyl-3-(4-fluorophenyl)-1H-pyrazol-5-yl}-6-(3,5-dimethyl-1H-pyrazol-1-yl)pyrimidin-4-amine] as the compound, how does the pIC50 read?
The pIC50 was 6.16.

`CCc1c(Nc2cc(-n3ncc4c3CCN(C(=O)OC(C)(C)C)C4)ncn2)n[nH]c1-c1ccc(F)cc1` [Example 33, tert-butyl 1-(6-{[4-ethyl-5-(4-fluorophenyl)-1H-pyrazol-3-yl]amino}pyrimidin-4-yl)-1,4,6,7-tetrahydro-5H-pyrazolo[4,3-c]pyridine-5-carboxylate] was tested. Which pIC50 did it give?
The pIC50 was 6.00.

`CCc1c(Nc2cc(-n3nc(C)c(C)c3O)ncn2)n[nH]c1-c1ccc(F)cc1` [Example 34, 1-(6-{[4-ethyl-5-(4-fluorophenyl)-1H-pyrazol-3-yl]amino}pyrimidin-4-yl)-3,4-dimethyl-1H-pyrazol-5-ol] was tested. Which pIC50 did it give?
The pIC50 was 6.00.

`CCc1nn(C)c(Nc2cc(-n3nc(C)cc3C)ncn2)c1-c1ccc(F)cc1` [Example 35, 6-(3,5-dimethyl-1H-pyrazol-1-yl)-N-[3-ethyl-4-(4-fluorophenyl)-1-methyl-1H-pyrazol-5-yl]pyrimidin-4-amine] was tested. Which pIC50 did it give?
The pIC50 was 5.85.

With `Cc1cc(C)n(-c2cc(Nc3[nH]nc(-c4ccc(F)cc4)c3CC(F)(F)F)ncn2)n1` [Example 36, 6-(3,5-dimethyl-1H-pyrazol-1-yl)-N-[3-(4-fluorophenyl)-4-(2,2,2-trifluoroethyl)-1H-pyrazol-5-yl]pyrimidin-4-amine] as the compound, how does the pIC50 read?
Its pIC50 is 5.77.

How did the pIC50 turn out when `CCc1c(Nc2cc(-n3ncc4c3CN(C(=O)OC(C)(C)C)C4)ncn2)n[nH]c1-c1ccc(F)cc1` [Example 37, tert-butyl 1-(6-{[4-ethyl-5-(4-fluorophenyl)-1H-pyrazol-3-yl]amino}pyrimidin-4-yl)-4,6-dihydropyrrolo[3,4-c]pyrazole-5(1H)-carboxylate] was run?
Its pIC50 is 5.77.

With `COCCc1c(Nc2cc(-n3nc(C)cc3C)ncn2)n[nH]c1-c1ccc(F)cc1` [Example 38, 6-(3,5-dimethyl-1H-pyrazol-1-yl)-N-[5-(4-fluorophenyl)-4-(2-methoxyethyl)-1H-pyrazol-3-yl]pyrimidin-4-amine] as the compound, how does the pIC50 read?
The pIC50 was 5.63.

`CCOc1ccc(-c2n[nH]c(Nc3cc(-n4nc(C)cc4C)ncn3)c2Cl)cc1` [Example 39, N-[4-chloro-3-(4-ethoxyphenyl)-1H-pyrazol-5-yl]-6-(3,5-dimethyl-1H-pyrazol-1-yl)pyrimidin-4-amine] was tested. Which pIC50 did it give?
Its pIC50 is 8.49.

How did the pIC50 turn out when `CCOC(=O)c1c(C)nn(-c2cc(Nc3nn(C)c(-c4ccc(F)cc4)c3CC)ncn2)c1C` [Example 40, ethyl 1-(6-{[4-ethyl-5-(4-fluorophenyl)-1-methyl-1H-pyrazol-3-yl]amino}pyrimidin-4-yl)-3,5-dimethyl-1H-pyrazole-4-carboxylate] was run?
Its pIC50 is 5.56.

With `Cc1cc(C)n(-c2cc(Nc3nn(C)c(-c4ccc(F)cc4)c3C3CC3)ncn2)n1` [Example 41, N-[4-cyclopropyl-5-(4-fluorophenyl)-1-methyl-1H-pyrazol-3-yl]-6-(3,5-dimethyl-1H-pyrazol-1-yl)pyrimidin-4-amine] as the compound, how does the pIC50 read?
Its pIC50 is 7.96.

`Cc1nn(-c2cc(Nc3nn(C)c(-c4ccc(F)cc4)c3C3CC3)ncn2)c(C)c1Cl` [Example 42, 6-(4-chloro-3,5-dimethyl-1H-pyrazol-1-yl)-N-[4-cyclopropyl-5-(4-fluorophenyl)-1-methyl-1H-pyrazol-3-yl]pyrimidin-4-amine] was tested. Which pIC50 did it give?
The pIC50 was 8.12.

With `Cc1cc(C)n(-c2cc(Nc3c(C4CC4)c(-c4ccc(F)cc4)nn3C)ncn2)n1` [Example 43, N-[4-cyclopropyl-3-(4-fluorophenyl)-1-methyl-1H-pyrazol-5-yl]-6-(3,5-dimethyl-1H-pyrazol-1-yl)pyrimidin-4-amine] as the compound, how does the pIC50 read?
The pIC50 was 6.84.

`Cc1nn(-c2cc(Nc3nn(C)c(-c4ccc(F)cc4)c3C3CC3)ncn2)c2ccccc12` [Example 44, N-[4-cyclopropyl-5-(4-fluorophenyl)-1-methyl-1H-pyrazol-3-yl]-6-(3-methyl-1H-indazol-1-yl)pyrimidin-4-amine] was tested. Which pIC50 did it give?
Its pIC50 is 8.27.

With `Cc1nn(-c2cc(Nc3c(C4CC4)c(-c4ccc(F)cc4)nn3C)ncn2)c(C)c1Cl` [Example 45, 6-(4-chloro-3,5-dimethyl-1H-pyrazol-1-yl)-N-[4-cyclopropyl-3-(4-fluorophenyl)-1-methyl-1H-pyrazol-5-yl]pyrimidin-4-amine] as the compound, how does the pIC50 read?
Its pIC50 is 7.54.

With `CCc1c(Nc2cc(-n3nc4c(c3C)CCCC4)ncn2)nn(C)c1-c1ccc(F)cc1` [Example 46, N-[4-ethyl-5-(4-fluorophenyl)-1-methyl-1H-pyrazol-3-yl]-6-(3-methyl-4,5,6,7-tetrahydro-2H-indazol-2-yl)pyrimidin-4-amine] as the compound, how does the pIC50 read?
The pIC50 was 8.19.

`Cc1nn(-c2cc(Nc3c(C4CC4)c(-c4ccc(F)cc4)nn3C)ncn2)c2ccccc12` [Example 47, N-[4-cyclopropyl-3-(4-fluorophenyl)-1-methyl-1H-pyrazol-5-yl]-6-(3-methyl-1H-indazol-1-yl)pyrimidin-4-amine] was tested. Which pIC50 did it give?
The pIC50 was 7.05.

With `Cc1nn(-c2cc(Nc3c(Cl)c(-c4ccc(F)cc4F)nn3C)ncn2)c(C)c1Cl` [Example 48, N-[4-chloro-3-(2,4-difluorophenyl)-1-methyl-1H-pyrazol-5-yl]-6-(4-chloro-3,5-dimethyl-1H-pyrazol-1-yl)pyrimidin-4-amine] as the compound, how does the pIC50 read?
The pIC50 was 6.51.

How did the pIC50 turn out when `Cc1nn(-c2cc(Nc3c(Cl)c(-c4ccc(F)cc4F)nn3C)ncn2)c2ccccc12` [Example 49, N-[4-chloro-3-(2,4-difluorophenyl)-1-methyl-1H-pyrazol-5-yl]-6-(3-methyl-1H-indazol-1-yl)pyrimidin-4-amine] was run?
Its pIC50 is 6.51.

How did the pIC50 turn out when `Cc1cc(C)n(-c2cc(Nc3c(Cl)c(-c4ccc(F)cc4F)nn3C)ncn2)n1` [Example 50, N-[4-chloro-3-(2,4-difluorophenyl)-1-methyl-1H-pyrazol-5-yl]-6-(3,5-dimethyl-1H-pyrazol-1-yl)pyrimidin-4-amine] was run?
Its pIC50 is 6.80.

With `CCOC(=O)c1c(C)nn(-c2cc(Nc3n[nH]c(-c4ccccc4)c3Cl)ncn2)c1C` [Example 51, ethyl 1-{6-[(4-chloro-5-phenyl-1H-pyrazol-3-yl)amino]pyrimidin-4-yl}-3,5-dimethyl-1H-pyrazole-4-carboxylate] as the compound, how does the pIC50 read?
The pIC50 was 7.00.

How did the pIC50 turn out when `Cc1cc(C)n(-c2cc(Nc3nn(C)c(-c4ccccc4)c3Cl)ncn2)n1` [Example 52, N-(4-chloro-1-methyl-5-phenyl-1H-pyrazol-3-yl)-6-(3,5-dimethyl-1H-pyrazol-1-yl)pyrimidin-4-amine] was run?
Its pIC50 is 7.08.

How did the pIC50 turn out when `Cc1nn(-c2cc(Nc3nn(C)c(-c4ccccc4)c3Cl)ncn2)c(C)c1Cl` [Example 53, 6-(4-chloro-3,5-dimethyl-1H-pyrazol-1-yl)-N-(4-chloro-1-methyl-5-phenyl-1H-pyrazol-3-yl)pyrimidin-4-amine] was run?
The pIC50 was 7.95.

With `Cc1nn(-c2cc(Nc3n[nH]c(-c4ccccc4)c3Cl)ncn2)c(C)c1Cl` [Example 54, 6-(4-chloro-3,5-dimethyl-1H-pyrazol-1-yl)-N-(4-chloro-5-phenyl-1H-pyrazol-3-yl)pyrimidin-4-amine] as the compound, how does the pIC50 read?
The pIC50 was 7.04.

`Cc1cc(C)n(-c2cc(Nc3nn(C)c(-c4ccc(F)cc4F)c3Cl)ncn2)n1` [Example 55, N-[4-chloro-5-(2,4-difluorophenyl)-1-methyl-1H-pyrazol-3-yl]-6-(3,5-dimethyl-1H-pyrazol-1-yl)pyrimidin-4-amine] was tested. Which pIC50 did it give?
The pIC50 was 6.88.

How did the pIC50 turn out when `Cc1nn(-c2cc(Nc3nn(C)c(-c4ccc(F)cc4F)c3Cl)ncn2)c(C)c1Cl` [Example 56, N-[4-chloro-5-(2,4-difluorophenyl)-1-methyl-1H-pyrazol-3-yl]-6-(4-chloro-3,5-dimethyl-1H-pyrazol-1-yl)pyrimidin-4-amine] was run?
Its pIC50 is 7.69.

With `Cc1nn(-c2cc(Nc3nn(C)c(-c4ccc(F)cc4F)c3Cl)ncn2)c2ccccc12` [Example 57, N-[4-chloro-5-(2,4-difluorophenyl)-1-methyl-1H-pyrazol-3-yl]-6-(3-methyl-1H-indazol-1-yl)pyrimidin-4-amine] as the compound, how does the pIC50 read?
The pIC50 was 6.93.

`CCc1c(Nc2cc(-n3nc(C)c(CO)c3C)ncn2)nn(C)c1-c1ccc(F)cc1` [Example 58, [1-(6-{[4-ethyl-5-(4-fluorophenyl)-1-methyl-1H-pyrazol-3-yl]amino}pyrimidin-4-yl)-3,5-dimethyl-1H-pyrazol-4-yl]methanol] was tested. Which pIC50 did it give?
Its pIC50 is 6.12.

With `CCOC(=O)c1c(C)nn(-c2cc(Nc3c(C)c(-c4ccc(F)cc4)nn3C)ncn2)c1C` [Example 59, ethyl 1-(6-{[3-(4-fluorophenyl)-1,4-dimethyl-1H-pyrazol-5-yl]amino}pyrimidin-4-yl)-3,5-dimethyl-1H-pyrazole-4-carboxylate] as the compound, how does the pIC50 read?
Its pIC50 is 7.92.

With `CCOC(=O)c1c(C)nn(-c2cc(Nc3n[nH]c(-c4ccc(F)cc4)c3C)ncn2)c1C` [Example 60, ethyl 1-(6-{[5-(4-fluorophenyl)-4-methyl-1H-pyrazol-3-yl]amino}pyrimidin-4-yl)-3,5-dimethyl-1H-pyrazole-4-carboxylate] as the compound, how does the pIC50 read?
The pIC50 was 7.37.
